Our source for the melting point values is a melting point compilation (Tetko et al.; mined from patent text by program, amines drawn as free bases though some values may be those of a salt).

Structures are written as SMILES. Some results are limits rather than exact numbers.

Take `CC(C)(C)NC(=O)c1nn(-c2ccc(Br)cc2)c2c1[C@@H]1CC[C@H]2C1`: the melting point – broadly, the temperature, or range, at which the solid turns liquid – was in the range of 148 to 149 °C. Under `Cc1cc([N+](=O)[O-])c(OCc2ccccc2)c(Cl)c1C` stands 74 to 75 °C; under `Nc1c(-c2ccc(C(F)(F)F)cc2F)nnn1-c1ccc(O)cc1`, 176 to 178 °C; under `CC#CCOc1cc(Cl)ncn1`, 43.5 °C. Next, `C=CCc1cc(C)cc(C(Nc2ccc(C(=N)N)cc2)C(=O)O)c1OCCO` (racemic): 228 °C.

On to `O=C(CCCCCBr)Nc1ccc(O)cc1F`, for which the melting point lay in the range of 66 to 69 °C. In turn, `NC(=O)c1ccc(CCCCCCN2CCOCC2)cc1O` came in with a melting point of 70 to 73 °C. Under `CCOC(=O)c1[nH]c2cc(C(F)(F)F)ccc2c1NCC(=O)c1ccccc1` stands 237 to 239 °C; under `O=C(Oc1ccccc1)N1Cc2ccccc2C(c2ccccc2)c2ccccc21` (stereo not given), 155 to 165 °C; under `O=C1NC(=O)c2c1c(O)nc1cc(Cl)ccc21`, more than 350 °C. Next, `Cc1nccn1-c1cccc(C2=Nc3ccc(-c4ccc(F)cc4)cc3NC(=O)C2)c1`: 227 °C; `Cc1cc(O)n2nc(S(=O)(=O)O)nc2n1`: more than 300 °C; `COC(=O)c1ccc(S(C)(=O)=O)c(-c2nccs2)c1Cl`: 135 to 138 °C.

`CC1(C)OC(=S)Nc2ccc(-c3cccc(Br)c3)cc21` showed a melting point of 191 to 193 °C.

`O=C1c2ccccc2C(=O)N1CCOc1nc(-c2ccccc2)c2cc(Cl)ccc2n1` returned a melting point of 155 °C. Under `Cc1cc(C#N)cc(C(=O)Nc2cccc(Cl)c2)n1` stands 148 °C; under `CCCCCCCC[Si](C)(C)c1cccc(Cl)c1C(=O)NCC`, 62 to 63 °C; under `N#Cc1ccccc1Cc1c(-c2ccc(OC(F)F)c(OC3CC3)c2)[nH]c2cn[nH]c(=O)c12`, more than 300 °C. Next, `Cc1cccc2c1nc(-c1c(F)cccc1F)n2S(=O)(=O)c1ccccc1`: 134 to 135 °C; `CC(C)(C)c1cc(SC2CCN(S(=O)(=O)c3ncc(CO)[nH]3)CC2)cc(C(C)(C)C)c1O`: 122 to 123 °C; `NC(=O)N(O)CC#Cc1cccc(Oc2ccccn2)c1`: 158 to 160 °C.

As for `Cn1c(COc2ccc(C=C3SC(=O)NC3=O)cc2)nc2cccnc21`, the melting point was 279 to 281 °C. Next, `CCOC(=O)c1cc2cccc(NS(=O)(=O)c3ccccc3OC)c2n1COC`: 106 to 107 °C. `Cc1ncc2cc(-c3c(Cl)cccc3Cl)c(N=CN(C)C)nc2n1` returned a melting point of 236 to 238 °C.

Consider `CN1C(=O)CCC(C)(C)c2cc([N+](=O)[O-])ccc21`, for which the melting point was determined as 115 °C. Next, `Cc1ccc(C#N)cc1-c1cc2cnc(NC3CCOCC3)nc2n(C)c1=O`: 254 °C; `CC1=C(C(=O)c2ccc(Cl)cc2)C(=O)C2C=CC=CC2C1=O` (stereo not given): 136 to 137 °C; `CC(C)n1nc(-c2cc(-n3cccc3)cnc2-c2ccccc2)ccc1=O`: 189 to 190 °C. Under `NC(c1ccccc1)c1ccc(C(N)c2ccccc2)cc1` (stereo not given) stands 123 to 127 °C. `Cc1cc(-n2nc(C(F)(F)F)cc2-c2ccc(-c3ccco3)cc2)ccc1S(C)(=O)=O` returned a melting point of 135 to 139 °C. Under `CCC(Oc1cccc(C)c1C)C(=O)OC1CC(O)C=C2C=CC(C)C(CCC3CC(O)CC(=O)O3)C21` (mixture of isomers) stands 148 to 150 °C; under `Fc1cc(CCl)c(F)cc1CCl`, 62.5 to 64.5 °C; under `COC(=O)C(=O)c1ccc(Cl)cc1`, 56 to 57 °C. Next, `CN1CCn2c1nc(C(=O)NCc1ccc(F)cc1)c(O)c2=O`: 212 °C; `NS(=O)(=O)c1ccc(NC(=O)Nc2cccc([N+](=O)[O-])c2)cc1`: 246 to 248 °C.
